Laboratory results reported in PubChem BioAssay AID248 (DTP/NCI, 2004).
Where “and” joins values, the source holds several entries; their conditions need not be identical. Equal entries are not always repeated. Inconclusive results and toxic doses are left out.

Test system: L1210 leukemia ip in BDF1 mice, survival T/C
Test: NCI In Vivo Anticancer Drug Screen. Data for tumor model L1210 Leukemia (intraperitoneal) in B6D2F1 (BDF1) mice
Conditions: higher = longer survival
Summary of the method: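 Tumor was transplanted into mice, which were then dosed with test compound or vehicle alone. Survival was recorded for each group, and the treated figure was expressed relative to the control figure.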

## Nc1nc(=S)c2[nH]cnc2[nH]1
endpoint: mean survival time, dose: 6.0 mg/kg/injection, schedule: Q01DX Z (ip), vehicle: carboxymethylcellulose (CMC)
  T/C: 98 % of control
endpoint: mean survival time, dose: 7.0 mg/kg/injection, schedule: Q01DX001 (ip), vehicle: saline
  T/C: 104 % of control and 122 % of control
endpoint: mean survival time, dose: 8.0 mg/kg/injection, schedule: Q01DX Z (ip), vehicle: carboxymethylcellulose (CMC)
  T/C: 106 % of control
endpoint: mean survival time, dose: 8.0 mg/kg/injection, schedule: Q04DX008 (ip), vehicle: alkali diluted with saline
  T/C: 154 % of control
endpoint: mean survival time, dose: 8.0 mg/kg/injection, schedule: Q07DX008 (ip), vehicle: alkali diluted with saline
  T/C: 153 % of control
endpoint: mean survival time, dose: 8.3 mg/kg/injection, schedule: Q01DX Z (ip), vehicle: carboxymethylcellulose (CMC)
  T/C: 94 % of control
endpoint: mean survival time, dose: 9.0 mg/kg/injection, schedule: Q01DX Z (ip), vehicle: carboxymethylcellulose (CMC)
  T/C: 96 % of control
endpoint: mean survival time, dose: 10.0 mg/kg/injection, schedule: Q01DX010 (ip), vehicle: other
  T/C: 115 % of control
endpoint: mean survival time, dose: 12.0 mg/kg/injection, schedule: Q04DX004 (ip), vehicle: alkali diluted with saline
  T/C: 152 % of control
endpoint: mean survival time, dose: 12.0 mg/kg/injection, schedule: Q04DX006 (ip), vehicle: alkali diluted with saline
  T/C: 151 % of control
endpoint: mean survival time, dose: 13.0 mg/kg/injection, schedule: Q01DX001 (ip), vehicle: carboxymethylcellulose (CMC)
  T/C: 152 % of control
endpoint: mean survival time, dose: 16.0 mg/kg/injection, schedule: Q01DX Z (sc), vehicle: saline
  T/C: 106 % of control
endpoint: mean survival time, dose: 20.0 mg/kg/injection, schedule: Q01DX001 (ip), vehicle: alkali diluted with saline
  T/C: 153 % of control
endpoint: mean survival time, dose: 20.0 mg/kg/injection, schedule: Q04DX003 (ip), vehicle: alkali diluted with saline
  T/C: 154 % of control
endpoint: mean survival time, dose: 24.0 mg/kg/injection, schedule: Q03DX006 (ip), vehicle: saline
  T/C: 107 % of control
endpoint: mean survival time, dose: 24.0 mg/kg/injection, schedule: Q07DX003 (ip), vehicle: saline
  T/C: 152 % of control
endpoint: mean survival time, dose: 24.0 mg/kg/injection, schedule: Q## X008 (ip), vehicle: alkali diluted with saline
  T/C: 116 % of control
endpoint: mean survival time, dose: 24.0 mg/kg/injection, schedule: Q## X024 (ip), vehicle: alkali diluted with saline
  T/C: 102 % of control
endpoint: mean survival time, dose: 27.0 mg/kg/injection, schedule: Q07DX004 (ip), vehicle: alkali diluted with saline
  T/C: 153 % of control
endpoint: mean survival time, dose: 30.0 mg/kg/injection, schedule: Q04DX003 (ip), vehicle: alkali diluted with saline
  T/C: 150 % of control
endpoint: mean survival time, dose: 36.0 mg/kg/injection, schedule: Q## X016 (ip), vehicle: alkali diluted with saline
  T/C: 105 % of control
endpoint: mean survival time, dose: 36.0 mg/kg/injection, schedule: Q## X024 (ip), vehicle: alkali diluted with saline
  T/C: 98 % of control
endpoint: mean survival time, dose: 40.0 mg/kg/injection, schedule: Q07DX004 (ip), vehicle: alkali diluted with saline
  T/C: 152 % of control
endpoint: mean survival time, dose: 50.0 mg/kg/injection, schedule: Q01DX001 (ip), vehicle: saline
  T/C: 118 % of control
endpoint: mean survival time, dose: 54.0 mg/kg/injection, schedule: Q## X008 (ip), vehicle: alkali diluted with saline
  T/C: 105 % of control
endpoint: mean survival time, dose: 54.0 mg/kg/injection, schedule: Q## X016 (ip), vehicle: alkali diluted with saline
  T/C: 97 % of control
endpoint: mean survival time, dose: 60.0 mg/kg/injection, schedule: Q07DX004 (ip), vehicle: alkali diluted with saline
  T/C: 152 % of control
endpoint: mean survival time, dose: 67.0 mg/kg/injection, schedule: Q01DX001 (ip), vehicle: alkali diluted with saline
  T/C: 152 % of control
endpoint: mean survival time, dose: 80.0 mg/kg/injection, schedule: Q01DX001 (ip), vehicle: alkali diluted with saline
  T/C: 150 % of control
endpoint: mean survival time, dose: 90.0 mg/kg/injection, schedule: Q07DX004 (ip), vehicle: alkali diluted with saline
  T/C: 120 % of control
endpoint: mean survival time, dose: 90.0 mg/kg/injection, schedule: Q07DX006 (ip), vehicle: alkali diluted with saline
  T/C: 118 % of control
endpoint: mean survival time, dose: 96.0 mg/kg/injection, schedule: Q07DX003 (ip), vehicle: saline
  T/C: 103 % of control
endpoint: mean survival time, dose: 100.0 mg/kg/injection, schedule: Q01DX001 (ip), vehicle: alkali diluted with saline
  T/C: 150 % of control
endpoint: mean survival time, dose: 100.0 mg/kg/injection, schedule: Q01DX001 (ip), vehicle: saline
  T/C: 112 % of control
endpoint: mean survival time, dose: 106.0 mg/kg/injection, schedule: Q04DX002 (ip), vehicle: alkali diluted with saline
  T/C: 98 % of control
endpoint: mean survival time, dose: 112.0 mg/kg/injection, schedule: Q01DX001 (ip), vehicle: saline
  T/C: 98 % of control
endpoint: mean survival time, dose: 150.0 mg/kg/injection, schedule: Q01DX001 (ip), vehicle: alkali diluted with saline
  T/C: 103 % of control
endpoint: mean survival time, dose: 448.0 mg/kg/injection, schedule: Q01DX001 (ip), vehicle: saline
  T/C: 119 % of control
endpoint: mean survival time, dose: 16.0 micrograms/kg/injection, schedule: Q01DX015 (ip), vehicle: alkali diluted with saline
  T/C: 100 % of control
endpoint: mean survival time, dose: 32.0 micrograms/kg/injection, schedule: Q01DX015 (ip), vehicle: alkali diluted with saline
  T/C: 107 % of control
endpoint: mean survival time, dose: 63.0 micrograms/kg/injection, schedule: Q01DX015 (ip), vehicle: alkali diluted with saline
  T/C: 107 % of control
endpoint: mean survival time, dose: 125.0 micrograms/kg/injection, schedule: Q01DX015 (ip), vehicle: alkali diluted with saline
  T/C: 116 % of control
endpoint: mean survival time, dose: 196.0 micrograms/kg/injection, schedule: Q01DX Z (ip), vehicle: carboxymethylcellulose (CMC)
  T/C: 122 % of control
endpoint: mean survival time, dose: 250.0 micrograms/kg/injection, schedule: Q01DX015 (ip), vehicle: alkali diluted with saline
  T/C: 103 % of control
endpoint: median survival time, dose: 4.0 mg/kg/injection, schedule: Q01DX009 (ip), vehicle: other
  T/C: 150 % of control
endpoint: median survival time, dose: 16.0 mg/kg/injection, schedule: Q01DX009 (ip), vehicle: other
  T/C: 116 % of control
